{"source": "patent US12187699B2", "about": "“GSPT1 compounds and methods of use of the novel compounds” (BRISTOL-MYERS SQUIBB COMPANY, priority 2022, dated 2025)"}
{"biological_target": "T1, ePL-tagged GSPT1 (Homo sapiens, UniProt P15170+Q96SW2)", "T1 construct": "expressed in transfected cells; host or cells: DF15 multiple myeloma cells", "T1 sequence (P15170 whole entry)": "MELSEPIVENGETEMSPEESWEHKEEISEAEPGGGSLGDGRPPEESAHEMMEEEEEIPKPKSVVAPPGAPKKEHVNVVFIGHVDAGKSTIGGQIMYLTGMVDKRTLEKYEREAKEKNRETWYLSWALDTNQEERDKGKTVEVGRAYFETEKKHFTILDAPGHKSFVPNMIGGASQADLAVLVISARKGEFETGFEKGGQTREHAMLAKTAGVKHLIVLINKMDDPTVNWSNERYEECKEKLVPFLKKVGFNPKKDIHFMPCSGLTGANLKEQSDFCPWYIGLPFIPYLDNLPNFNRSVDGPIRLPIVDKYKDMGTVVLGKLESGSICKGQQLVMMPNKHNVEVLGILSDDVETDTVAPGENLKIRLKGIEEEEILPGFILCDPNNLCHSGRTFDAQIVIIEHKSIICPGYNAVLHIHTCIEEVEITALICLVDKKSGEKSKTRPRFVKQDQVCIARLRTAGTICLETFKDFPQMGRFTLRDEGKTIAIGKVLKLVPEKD", "T1 sequence (Q96SW2 whole entry)": "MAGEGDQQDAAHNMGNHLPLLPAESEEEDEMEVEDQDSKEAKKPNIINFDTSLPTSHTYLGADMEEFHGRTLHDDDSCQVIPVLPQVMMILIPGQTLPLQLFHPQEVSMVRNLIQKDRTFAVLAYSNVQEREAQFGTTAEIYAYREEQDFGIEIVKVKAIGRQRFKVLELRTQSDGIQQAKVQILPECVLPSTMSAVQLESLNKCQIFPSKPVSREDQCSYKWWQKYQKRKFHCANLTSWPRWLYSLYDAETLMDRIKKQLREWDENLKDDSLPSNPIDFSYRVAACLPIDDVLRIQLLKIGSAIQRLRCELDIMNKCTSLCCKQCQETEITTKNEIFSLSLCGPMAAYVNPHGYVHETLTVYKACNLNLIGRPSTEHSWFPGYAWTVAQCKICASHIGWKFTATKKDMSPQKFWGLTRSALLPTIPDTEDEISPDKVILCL", "T1 sequence (Q16531 whole entry partner)": "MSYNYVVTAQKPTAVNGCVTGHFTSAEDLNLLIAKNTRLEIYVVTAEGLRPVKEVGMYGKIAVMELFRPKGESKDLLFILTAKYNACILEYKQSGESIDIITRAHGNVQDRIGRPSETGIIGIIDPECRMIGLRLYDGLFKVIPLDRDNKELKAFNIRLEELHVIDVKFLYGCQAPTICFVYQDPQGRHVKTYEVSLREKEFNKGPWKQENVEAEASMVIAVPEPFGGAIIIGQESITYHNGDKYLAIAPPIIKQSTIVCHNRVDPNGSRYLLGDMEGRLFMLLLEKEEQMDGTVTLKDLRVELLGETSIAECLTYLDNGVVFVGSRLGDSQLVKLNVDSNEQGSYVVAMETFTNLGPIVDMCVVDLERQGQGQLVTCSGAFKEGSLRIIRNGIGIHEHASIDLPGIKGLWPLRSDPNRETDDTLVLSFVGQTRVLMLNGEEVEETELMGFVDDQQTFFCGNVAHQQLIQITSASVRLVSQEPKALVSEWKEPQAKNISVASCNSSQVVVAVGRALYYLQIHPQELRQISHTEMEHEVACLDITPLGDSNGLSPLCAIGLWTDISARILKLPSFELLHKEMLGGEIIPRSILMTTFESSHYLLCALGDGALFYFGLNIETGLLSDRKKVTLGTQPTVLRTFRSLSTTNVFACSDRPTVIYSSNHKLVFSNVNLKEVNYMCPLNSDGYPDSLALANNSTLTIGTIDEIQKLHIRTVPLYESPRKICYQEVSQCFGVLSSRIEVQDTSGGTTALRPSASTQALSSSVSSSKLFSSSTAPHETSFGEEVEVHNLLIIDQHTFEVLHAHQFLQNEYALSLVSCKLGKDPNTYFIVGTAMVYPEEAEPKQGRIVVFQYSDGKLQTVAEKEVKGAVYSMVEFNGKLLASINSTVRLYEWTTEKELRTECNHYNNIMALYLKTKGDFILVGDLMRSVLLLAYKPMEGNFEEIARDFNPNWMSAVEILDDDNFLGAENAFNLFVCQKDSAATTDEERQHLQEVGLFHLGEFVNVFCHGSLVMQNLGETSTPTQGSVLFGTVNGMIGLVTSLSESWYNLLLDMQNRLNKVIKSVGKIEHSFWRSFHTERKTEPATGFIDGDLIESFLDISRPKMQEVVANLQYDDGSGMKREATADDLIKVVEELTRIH", "test": "GSPT1 DiscoverX Degradation Assay", "format": "cell-based", "conditions": "DF15 multiple myeloma cells expressing ePL-tagged GSPT1; twenty hours; minimum of percent of control curve (Ataluren control Y constant=0, DMSO control = Y max)", "description": "GSPT1 DiscoverX Degradation Assay.\nCompounds were dispensed by an acoustic dispenser (ATS Acoustic Transfer System from EDC Biosystems) into a 384-well in a 10 pt dose response curve using 3 fold dilutions starting at 10 uM and going down to 0.0005 uM in DMSO. A DMSO control is added to the assay. […] Assay plates were incubated at 37° C. with 5% CO2 for twenty hours. After incubation, 25 μl of the InCELL Hunter™ Detection Reagent Working Solution (DiscoverX, cat #96-0002, Fremont, CA) was added to each well and incubated at room temperature for 30 minutes protected from light. After 30 minutes, luminescence was read on a PHERAstar luminometer (Cary, NC).\nThe minimum Y is reference to the Y constant. In the GSPT1 degradation assay, we use Ataluren® (luciferase inhibitor) as the control with a Y constant=0. The maximum limit is the Y max DMSO control. All percent of control GSPT1 degradation curves were processed and evaluated using Activity Base (IDBS)."}
{"smiles": "O=C1CCC(N2Cc3cc(CNC(=O)Nc4ccc(OCc5ccc(CO)cc5)cc4)ccc3C2=O)C(=O)N1", "note": "(stereo not drawn) [Example 1, 1-((2-(2,6-dioxopiperidin-3-yl)-1-oxoisoindolin-5-yl)methyl)-3-(4-((4-(hydroxymethyl)benzyl)oxy)phenyl)urea]", "GSPT1 Degradation Ymin": 3.00}
{"smiles": "NCc1ccc(COc2ccc(NC(=O)NCc3ccc4c(c3)CN(C3CCC(=O)NC3=O)C4=O)cc2)cc1", "note": "(stereo not drawn) [Example 2, 1-[4-[[4-(aminomethyl)phenyl]methoxy]phenyl]-3-[[2-(2,6-dioxo-3-piperidyl)-1-oxo-isoindolin-5-yl]methyl]urea]", "GSPT1 Degradation Ymin": 4.34}
{"smiles": "NCc1ccccc1COc1ccc(NC(=O)NCc2ccc3c(c2)CN(C2CCC(=O)NC2=O)C3=O)cc1", "note": "(stereo not drawn) [Example 3, 1-(4-((2-(aminomethyl)benzyl)oxy)phenyl)-3-((2-(2,6-dioxopiperidin-3-yl)-1-oxoisoindolin-5-yl)methyl)urea]", "GSPT1 Degradation Ymin": 7.30}
{"smiles": "NCc1cccc(COc2ccc(NC(=O)NCc3ccc4c(c3)CN(C3CCC(=O)NC3=O)C4=O)cc2)c1", "note": "(stereo not drawn) [Example 4, 1-(4-((3-(aminomethyl)benzyl)oxy)phenyl)-3-((2-(2,6-dioxopiperidin-3-yl)-1-oxoisoindolin-5-yl)methyl)urea]", "GSPT1 Degradation Ymin": 6.80}
{"smiles": "Nc1cccc(COc2ccc(NC(=O)NCc3ccc4c(c3)CN(C3CCC(=O)NC3=O)C4=O)cc2)c1", "note": "(stereo not drawn) [Example 5, 1-(4-((3-aminobenzyl)oxy)phenyl)-3-((2-(2,6-dioxopiperidin-3-yl)-1-oxoisoindolin-5-yl)methyl)urea]", "GSPT1 Degradation Ymin": 3.00}
{"smiles": "O=C1CCC(N2Cc3cc(CNC(=O)Nc4ccc(OCc5ccccc5)cc4)ccc3C2=O)C(=O)N1", "note": "(stereo not drawn) [Example 6, 1-[4-(benzyloxy)phenyl]-3-{[2-(2,6-dioxopiperidin-3-yl)-1-oxo-2,3-dihydro-1H-isoindol-5-yl]methyl}urea]", "GSPT1 Degradation Ymin": 3.00}
{"smiles": "O=C1CCC(N2Cc3cc(CNC(=O)Nc4ccc(OCc5cccc(CO)c5)cc4)ccc3C2=O)C(=O)N1", "note": "(stereo not drawn) [Example 7, 1-((2-(2,6-dioxopiperidin-3-yl)-1-oxoisoindolin-5-yl)methyl)-3-(4-((3-(hydroxymethyl)benzyl)oxy)phenyl)urea]", "GSPT1 Degradation Ymin": 4.00}
{"smiles": "O=C1CCC(N2Cc3cc(CNC(=O)Nc4ccc(OCc5ccccc5CO)cc4)ccc3C2=O)C(=O)N1", "note": "(stereo not drawn) [Example 8, 1-((2-(2,6-dioxopiperidin-3-yl)-1-oxoisoindolin-5-yl)methyl)-3-(4-((2-(hydroxymethyl)benzyl)oxy)phenyl)urea]", "GSPT1 Degradation Ymin": 4.00}
{"smiles": "O=C1CCC(N2Cc3cc(CNC(=O)Nc4ccc(OCc5ccccc5O)cc4)ccc3C2=O)C(=O)N1", "note": "(stereo not drawn) [Example 9, 1-((2-(2,6-dioxopiperidin-3-yl)-1-oxoisoindolin-5-yl)methyl)-3-(4-((2-hydroxybenzyl)oxy)phenyl)urea]", "GSPT1 Degradation Ymin": 3.50}
{"smiles": "O=C1CCC(N2Cc3cc(CNC(=O)Nc4ccc(OCc5ccccc5O)cc4)ccc3C2=O)C(=O)N1", "note": "(stereo not drawn) [Example 10, 1-((2-(2,6-dioxopiperidin-3-yl)-1-oxoisoindolin-5-yl)methyl)-3-(4-((2-hydroxybenzyl)oxy)phenyl)urea]", "GSPT1 Degradation Ymin": 4.00}
{"smiles": "NCc1ccc(COc2ccc(NC(=O)NCc3ccc4c(c3)CN(C3CCC(=O)NC3=O)C4=O)cc2)c(F)c1", "note": "(stereo not drawn) [Example 11, 1-(4-{[4-(aminomethyl)-2-fluorophenyl]methoxy}phenyl)-3-{[2-(2,6-dioxopiperidin-3-yl)-1-oxo-2,3-dihydro-1H-isoindol-5-yl]methyl}urea]", "GSPT1 Degradation Ymin": 6.71}
{"smiles": "Cc1cc(CN)ccc1COc1ccc(NC(=O)NCc2ccc3c(c2)CN(C2CCC(=O)NC2=O)C3=O)cc1", "note": "(stereo not drawn) [Example 12, 1-(4-{[4-(aminomethyl)-2-methylphenyl]methoxy}phenyl)-3-{[2-(2,6-dioxopiperidin-3-yl)-1-oxo-2,3-dihydro-1H-isoindol-5-yl]methyl}urea]", "GSPT1 Degradation Ymin": 5.39}
{"smiles": "NCc1ccc(COc2ccc(NC(=O)NCc3ccc4c(c3)CN(C3CCC(=O)NC3=O)C4=O)cc2)nc1", "note": "(stereo not drawn) [Example 13, 1-(4-{[5-(aminomethyl)pyridin-2-yl]methoxy}phenyl)-3-{[2-(2,6-dioxopiperidin-3-yl)-1-oxo-2,3-dihydro-1H-isoindol-5-yl]methyl}urea]", "GSPT1 Degradation Ymin": 6.75}
{"smiles": "NCc1ccc(COc2ccc(NC(=O)NCc3ccc4c(c3)CN(C3CCC(=O)NC3=O)C4=O)cc2)cn1", "note": "(stereo not drawn) [Example 14, 1-(4-{[6-(aminomethyl)pyridin-3-yl]methoxy}phenyl)-3-{[2-(2,6-dioxopiperidin-3-yl)-1-oxo-2,3-dihydro-1H-isoindol-5-yl]methyl}urea]", "GSPT1 Degradation Ymin": 5.83}
{"smiles": "NCc1cnc(COc2ccc(NC(=O)NCc3ccc4c(c3)CN(C3CCC(=O)NC3=O)C4=O)cc2)nc1", "note": "(stereo not drawn) [Example 15, 1-(4-{[5-(aminomethyl)pyrimidin-2-yl]methoxy}phenyl)-3-{[2-(2,6-dioxopiperidin-3-yl)-1-oxo-2,3-dihydro-1H-isoindol-5-yl]methyl}urea]", "GSPT1 Degradation Ymin": 3.10}
{"smiles": "NCc1ccc(COc2ccc(NC(=O)NCc3ccc4c(c3)CN(C3CCC(=O)NC3=O)C4=O)cc2)nn1", "note": "(stereo not drawn) [Example 16, 1-(4-{[6-(aminomethyl)pyridazin-3-yl]methoxy}phenyl)-3-{[2-(2,6-dioxopiperidin-3-yl)-1-oxo-2,3-dihydro-1H-isoindol-5-yl]methyl}urea]", "GSPT1 Degradation Ymin": 12.67}
{"smiles": "Cc1cc(NC(=O)NCc2ccc3c(c2)CN(C2CCC(=O)NC2=O)C3=O)ccc1OCc1ccc(CN)cc1", "note": "(stereo not drawn) [Example 17, 1-(4-{[4-(aminomethyl)phenyl]methoxy}-3-methylphenyl)-3-{[2-(2,6-dioxopiperidin-3-yl)-1-oxo-2,3-dihydro-1H-isoindol-5-yl]methyl}urea]", "GSPT1 Degradation Ymin": 15.91}
{"smiles": "NCc1ccc(COc2ccc(NC(=O)NCc3ccc4c(c3)CN(C3CCC(=O)NC3=O)C4=O)cc2F)cc1", "note": "(stereo not drawn) [Example 18, 1-(4-{[4-(aminomethyl)phenyl]methoxy}-3-fluorophenyl)-3-{[2-(2,6-dioxopiperidin-3-yl)-1-oxo-2,3-dihydro-1H-isoindol-5-yl]methyl}urea]", "GSPT1 Degradation Ymin": 54.45}
{"smiles": "NCc1ccc(COc2ccc(NC(=O)NCc3ccc4c(c3)CN(C3CCC(=O)NC3=O)C4=O)nn2)cc1", "note": "(stereo not drawn) [Example 19, 1-(6-{[4-(aminomethyl)phenyl]methoxy}pyridazin-3-yl)-3-{[2-(2,6-dioxopiperidin-3-yl)-1-oxo-2,3-dihydro-1H-isoindol-5-yl]methyl}urea]", "GSPT1 Degradation Ymin": 6.55}
{"smiles": "NCc1ccc(COc2ccc(NC(=O)NCc3ccc4c(c3)CN(C3CCC(=O)NC3=O)C4=O)cn2)cc1", "note": "(stereo not drawn) [Example 20, 1-(6-{[4-(aminomethyl)phenyl]methoxy}pyridin-3-yl)-3-{[2-(2,6-dioxopiperidin-3-yl)-1-oxo-2,3-dihydro-1H-isoindol-5-yl]methyl}urea]", "GSPT1 Degradation Ymin": 7.50}
{"smiles": "CCc1cc(CN)ccc1COc1ccc(NC(=O)NCc2ccc3c(c2)CN(C2CCC(=O)NC2=O)C3=O)cc1", "note": "(stereo not drawn) [Example 21, 1-(4-{[4-(aminomethyl)-2-ethylphenyl]methoxy}phenyl)-3-{[2-(2,6-dioxopiperidin-3-yl)-1-oxo-2,3-dihydro-1H-isoindol-5-yl]methyl}urea]", "GSPT1 Degradation Ymin": 10.44}
{"smiles": "CCCc1cc(CN)ccc1COc1ccc(NC(=O)NCc2ccc3c(c2)CN(C2CCC(=O)NC2=O)C3=O)cc1", "note": "(stereo not drawn) [Example 22, 1-(4-{[4-(aminomethyl)-2-n-propylphenyl]methoxy}phenyl)-3-{[2-(2,6-dioxopiperidin-3-yl)-1-oxo-2,3-dihydro-1H-isoindol-5-yl]methyl}urea]", "GSPT1 Degradation Ymin": 9.46}
{"smiles": "COc1cc(CN)ccc1COc1ccc(NC(=O)NCc2ccc3c(c2)CN(C2CCC(=O)NC2=O)C3=O)cc1", "note": "(stereo not drawn) [Example 23, 1-(4-{[4-(aminomethyl)-2-methoxyphenyl]methoxy}phenyl)-3-{[2-(2,6-dioxopiperidin-3-yl)-1-oxo-2,3-dihydro-1H-isoindol-5-yl]methyl}urea]", "GSPT1 Degradation Ymin": 8.85}
{"smiles": "CC(C)Oc1cc(CN)ccc1COc1ccc(NC(=O)NCc2ccc3c(c2)CN(C2CCC(=O)NC2=O)C3=O)cc1", "note": "(stereo not drawn) [Example 24, 1-(4-{[4-(aminomethyl)-2-(propan-2-yloxy)phenyl]methoxy}phenyl)-3-{[2-(2,6-dioxopiperidin-3-yl)-1-oxo-2,3-dihydro-1H-isoindol-5-yl]methyl}urea]", "GSPT1 Degradation Ymin": 10.04}
{"smiles": "NCc1ccc(COc2ccc(NC(=O)NCc3ccc4c(c3)CN(C3CCC(=O)NC3=O)C4=O)cc2)c(Cl)c1", "note": "(stereo not drawn) [Example 25, 1-(4-{[4-(aminomethyl)-2-chlorophenyl]methoxy}phenyl)-3-{[2-(2,6-dioxopiperidin-3-yl)-1-oxo-2,3-dihydro-1H-isoindol-5-yl]methyl}urea]", "GSPT1 Degradation Ymin": 5.50}
{"smiles": "NCc1ccc(COc2ccc(NC(=O)NCc3ccc4c(c3)CN(C3CCC(=O)NC3=O)C4=O)cc2)c(OC2COC2)c1", "note": "(stereo not drawn) [Example 26, 1-(4-{[4-(aminomethyl)-2-(oxetan-3-yloxy)phenyl]methoxy}phenyl)-3-{[2-(2,6-dioxopiperidin-3-yl)-1-oxo-2,3-dihydro-1H-isoindol-5-yl]methyl}urea]", "GSPT1 Degradation Ymin": 6.92}
{"smiles": "NCc1ccc(COc2ccc(NC(=O)NCc3ccc4c(c3)CN(C3CCC(=O)NC3=O)C4=O)cc2)c(C2CC2)c1", "note": "(stereo not drawn) [Example 27, 1-(4-{[4-(aminomethyl)-2-cyclopropylphenyl]methoxy}phenyl)-3-{[2-(2,6-dioxopiperidin-3-yl)-1-oxo-2,3-dihydro-1H-isoindol-5-yl]methyl}urea]", "GSPT1 Degradation Ymin": 6.15}
